Legend:
[1] = test system: neutrophils; test: ANCA induced neutrophil apoptosis; assay type: cell-based; conditions: Homo sapiens, 10 hours, TNFα pre-treated, anti-PR3 and anti-MPO ANCA (FIG. 9), read-out: IC50 for overcoming the increase in apoptosis imposed by ANCA
Method: Neutrophils were cultured at 2×10^6 cells/ml for 10 h in RPMI1640 medium containing human serum and antibiotics and a range of concentrations of compound 10 in the absence or presence of ANCA. Apoptosis was determined by flow cytometry after DiOC6 staining.
ANCA are predominantly IgG autoantibodies directed against constituents of primary granules of neutrophils (PR3 and MPO). ANCA associated vasculitis is the most common primary systemic small-vessel vasculitis in adults. The common pathology of this disease is focal necrotizing lesions of blood vessels and may affect different vessels and organs. […] Neutrophils were cultured for 10 hours in RPMI1640 medium containing 2% human AB serum, 2 mM L-glutamine and antibiotics (100 U/ml penicillin, […] streptomycin) and their apoptosis determined by staining with Giemsa stain and observing an apoptotic morphology by light microscopy. […] The ability of compound 10 to inhibit ANCA-induced neutrophil inflammatory functions was also determined Neutrophils were cultured in RPMI1640 medium containing 2% human AB serum, 2 mM L-glutamine and antibiotics (100 U/ml penicillin, […] streptomycin). […] ANCA stimulated degranulation of neutrophils was assessed by release of myeloperoxidase in to the medium over a 30 minute period, with MPO measured by ELISA. […] HUVEC viability was determined by trypan blue staining and light microscopy.

[2] = test system: human skin melanoma G-361; test: In vitro cytotoxicity, Calcein AM assay, G-361; assay type: cell-based; conditions: Homo sapiens, G-361, 72 hours
Excerpt: (§1) Low cytotoxicity of the compounds is the major property determining the cosmetic use. One of the parameters used, as the basis for cytotoxicity assays, is the metabolic activity of viable cells. For example, a microtiter assay, which uses the Calcein AM, is now widely used to quantitate cell proliferation and cytotoxicity. For instance, this assay is used in drug screening programs and in chemosensitivity testing. Because only metabolically active cells cleave Calcein AM, these assays detect viable cells exclusively. The quantity of […] Calcein AM corresponds to the number of vital cells in the culture.
(§2) Human T-lymphoblastic leukemia cell line CEM; promyelocytic HL-60 and monocytic U937 leukemias; breast carcinoma cell lines MCF-7, BT549, MDA-MB-231; glioblastoma U87MG cells; cervical carcinoma cells HELA; sarcoma cells U2OS and Saos2; hepatocellular carcinoma HepG2; mouse fibroblasts NIH3T3; mouse immortalized bone marrow macrophages B2.4 and B10A.4; P388D1 and L1210 leukemia; B16 and B16F10 melanomas; human osteosarcoma HOS; human myeloid leukemia K-562; human skin melanoma G-361 were used for routine screening of compounds. The cells were maintained in Nunc/Corning 80 cm^2 plastic tissue culture flasks and cultured in cell culture medium (DMEM with 5 g/l glucose, 2 mM glutamine, 100 U/mL penicillin, 100 μg/mL streptomycin, 10% fetal calf serum and sodium bicarbonate).
(§3) The cell suspensions that were prepared and diluted according to the particular cell type and the expected target cell density (2.500-30.000 cells per well based on cell growth characteristics) were added by pipette ([…]) into 96/well microtiter plates. Inoculates were allowed a pre-incubation period of 24 hours at 37° C. and 5% CO2 for stabilisation. Four-fold dilutions of the intended test concentration were added at time zero in 20 μl aliquots to the microtiter plate wells. Usually, the compound tested was evaluated at six 4-fold dilutions. In routine testing, the highest well concentration was 100 μM, but it can be the matter of change dependent on the agent. All drug concentrations were examined in duplicates. Incubations of cells with the tested compounds lasted for 72 hours at 37° C., in 5% CO2 atmosphere and 100% humidity. At the end of the incubation period, the cells were assayed by using Calcein AM. Ten microliters of the stock solution were pipetted into each well and incubated for 1 hour. Fluorescence (FD) was measured with the Labsystem FIA Reader Fluoroscan Ascent (UK). The tumour cell survival (GI50) was calculated using the following equitation: TCS=(FDdrug exposed well/mean FDeontrol wells)×100%. The GI50 value, the drug concentration lethal to 50% of the tumour cells, was calculated from the obtained dose response curves.
(§4) Zero cytotoxicity of the novel compounds is the basic prerequisite for agricultural and tumor-unrelated applications. The cytoxicity of the novel compounds was tested on a panel of cell lines of different histogenetic and species origin (Table 9). We show herein that equal activities were found in all tumour cell lines tested, however, the non-malignant cells, e.g. NIH3T3 fibroblasts and normal human lymphocytes, were resistant to 2,6-disubstituted purine ribosides induced cytotoxicity. The compounds listed in Tab. 9 can be divided into 2 groups. The first group contains “classical cytokinins” represented by 6-substituted purine ribosides (which are known in the prior art). The second group contains the novel 2,6-disubstituted derivatives of these compounds. […] GI50 for NIH3T3 fibroblasts and normal human lymphocytes was always higher than 100 μM. The novel derivatives show no toxicity to normal and tumour cells in concentrations about 100 μM and thus are more suitable for agricultural applications than “classical cytokinins” (6-substituted purine riboside derivatives).

[3] = test system: breast carcinoma cell line MCF-7; test: In vitro cytotoxicity, Calcein AM assay, MCF7; assay type: cell-based, human; conditions: Homo sapiens, MCF7, 72 hours
Excerpt: as §1, §2, §3, §4

[4] = test system: neutrophils; test: ANCA-induced neutrophil superoxide generation, lucigenin based assay; assay type: cell-based, human; conditions: single concentration 10 μM, 10 minute period (FIG. 11)
Method: FIG. 11 Inhibition of ANCA induced neutrophil ROS production by compound 10. Neutrophils were cultured at 2×10^6 cells/ml in RPMI1640 medium containing human serum antibiotics and 20 ng/ml TNFα for 10 minutes prior to addition of ANCA and a range of concentrations of compound 10. Generation of superoxide was determined over a 10 minute period using a lucigenin based assay. The area under the curve was calculated to give superoxide generation over the whole assay period.
ANCA are predominantly IgG autoantibodies directed against constituents of primary granules of neutrophils (PR3 and MPO). ANCA associated vasculitis is the most common primary systemic small-vessel vasculitis in adults. […] Neutrophils were cultured for 10 hours in RPMI1640 medium containing 2% human AB serum, 2 mM L-glutamine and antibiotics (100 U/ml penicillin, […] streptomycin) and their apoptosis determined by staining with Giemsa stain and observing an apoptotic morphology by light microscopy. […] The ability of compound 10 to inhibit ANCA-induced neutrophil inflammatory functions was also determined Neutrophils were cultured in RPMI1640 medium containing 2% human AB serum, 2 mM L-glutamine and antibiotics (100 U/ml penicillin, […] streptomycin). […] ANCA stimulated degranulation of neutrophils was assessed by release of myeloperoxidase in to the medium over a 30 minute period, with MPO measured by ELISA. […]

COc1cccc(CNc2nc(Cl)nc3c2ncn3C2OC(CO)C(O)C2O)c1O (stereo not shown) [Compound 10, 2-Chloro-6-(2-hydroxy-3-methoxybenzylamino)purine riboside]
IC50 [1]: 4 µM | GI50 [2]: > 100 µM | GI50 [3]: > 100 µM | ANCA-induced superoxide generation [4]: completely inhibited ANCA-induced superoxide generation

From US20140066394A1, “Substituted 6-(Benzylamino) Purine Riboside Derivatives, Use Thereof and Compositions Containing These Derivatives” (Biopatterns, S.R.O, priority 2009, published 2014)
